The values below come from patent US20210340500A1, “METHOD FOR PRODUCING INTESTINAL CELLS FROM PLURIPOTENT STEM CELLS” (TOKYO INSTITUTE OF TECHNOLOGY, priority 2018, published 2021).

One data set concerns the target CYP3A4 (Homo sapiens, UniProt P08684). In words: CYP metabolism assay (midazolam hydroxylation, LC-MS/MS) in hiPS-derived enterocytes. The note with it: day 21 of differentiation, 120 min incubation.
In a further data set the target is P-gp (Homo sapiens, UniProt P08183).
Data set [1] has as its system hiPSC-derived enterocytes.
For data set [2], the system named is Caco-2 cells. The note with it: cited from earlier work.
Data set [3] has as its system Caco-2 cells. Briefly: Transport across Caco-2 cell monolayer (literature). The format is in vitro ADME, human. The following applies: corresponds to the literature value.
A further data set concerns CYP3A4 expression. In words: CYP3A4 mRNA expression in hiPSC-derived enterocytes by real time PCR. The format is cell-based, human. The following applies: day 21 of differentiation. Background: In qPCR the cycle at which signal appears reflects the starting amount.

Sequence of CYP3A4 (P08684 whole entry): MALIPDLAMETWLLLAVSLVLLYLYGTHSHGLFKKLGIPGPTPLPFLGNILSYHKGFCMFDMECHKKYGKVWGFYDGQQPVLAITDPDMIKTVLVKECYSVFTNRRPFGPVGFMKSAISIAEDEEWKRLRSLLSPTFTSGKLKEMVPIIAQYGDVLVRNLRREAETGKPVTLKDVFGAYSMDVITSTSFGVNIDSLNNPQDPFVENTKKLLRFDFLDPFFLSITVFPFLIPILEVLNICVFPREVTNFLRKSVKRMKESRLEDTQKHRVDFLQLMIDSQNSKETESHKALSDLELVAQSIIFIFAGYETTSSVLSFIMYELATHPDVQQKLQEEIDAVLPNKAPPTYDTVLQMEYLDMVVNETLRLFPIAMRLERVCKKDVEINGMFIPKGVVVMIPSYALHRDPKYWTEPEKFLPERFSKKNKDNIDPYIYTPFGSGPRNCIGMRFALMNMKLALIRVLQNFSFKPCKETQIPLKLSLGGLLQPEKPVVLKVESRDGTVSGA
Sequence of P-gp (P08183 whole entry): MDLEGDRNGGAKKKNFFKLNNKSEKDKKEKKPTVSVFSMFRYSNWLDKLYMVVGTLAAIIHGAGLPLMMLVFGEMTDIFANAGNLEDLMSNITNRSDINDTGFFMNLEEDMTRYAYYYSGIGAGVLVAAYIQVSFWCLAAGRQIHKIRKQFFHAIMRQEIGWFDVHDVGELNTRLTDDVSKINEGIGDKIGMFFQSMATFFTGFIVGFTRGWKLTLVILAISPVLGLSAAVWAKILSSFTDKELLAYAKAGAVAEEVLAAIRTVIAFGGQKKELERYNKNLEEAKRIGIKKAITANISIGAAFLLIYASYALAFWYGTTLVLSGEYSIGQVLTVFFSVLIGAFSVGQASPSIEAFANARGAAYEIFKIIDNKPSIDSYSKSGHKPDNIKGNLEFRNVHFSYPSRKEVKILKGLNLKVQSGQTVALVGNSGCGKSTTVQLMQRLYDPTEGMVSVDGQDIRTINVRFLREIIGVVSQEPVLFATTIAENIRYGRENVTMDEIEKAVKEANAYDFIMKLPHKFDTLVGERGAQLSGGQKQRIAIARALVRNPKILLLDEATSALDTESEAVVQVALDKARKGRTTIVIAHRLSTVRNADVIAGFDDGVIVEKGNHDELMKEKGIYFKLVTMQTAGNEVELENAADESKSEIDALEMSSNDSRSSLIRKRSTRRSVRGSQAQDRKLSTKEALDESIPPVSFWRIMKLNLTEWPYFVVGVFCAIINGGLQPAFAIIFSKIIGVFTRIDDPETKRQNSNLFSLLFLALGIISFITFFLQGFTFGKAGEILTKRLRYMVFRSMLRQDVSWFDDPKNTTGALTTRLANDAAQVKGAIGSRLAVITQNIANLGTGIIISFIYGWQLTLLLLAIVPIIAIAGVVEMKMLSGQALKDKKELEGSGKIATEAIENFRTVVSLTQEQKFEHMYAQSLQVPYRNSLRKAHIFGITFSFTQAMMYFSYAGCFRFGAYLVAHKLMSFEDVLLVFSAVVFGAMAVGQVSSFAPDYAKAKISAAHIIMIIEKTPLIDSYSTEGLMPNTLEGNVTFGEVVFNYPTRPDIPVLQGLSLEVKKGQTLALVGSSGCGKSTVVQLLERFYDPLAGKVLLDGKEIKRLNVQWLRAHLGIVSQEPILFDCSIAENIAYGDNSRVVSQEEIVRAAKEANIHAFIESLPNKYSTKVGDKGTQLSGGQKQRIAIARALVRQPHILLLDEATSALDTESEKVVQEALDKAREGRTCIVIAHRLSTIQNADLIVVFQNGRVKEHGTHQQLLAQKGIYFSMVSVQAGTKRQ
Protocol for CYP3A4 expression: For intestine differentiation, the day 10 intestinal precursor cell stock was freeze thawed, and plated onto a rehydrated vitrigel membrane (CVM) 24-well insert (ad-MED Vitrigel™ 2, KANTO KAGAKU, culture area: 0.33 cm^2/insert) in M2 medium at a concentration of 1.6×10^5 cells/well. Y-27632 (WAKO: 251-00514) was added to the medium upon plating for the first 2 days. The cells were cultured in M2 until day 15. A volume of the medium was 200 μL for an upper layer and 700 μL for a lower layer of the cell culture insert. The medium was changed to M3-1 or M3-2 for days 15 to 21, or up to day 30. The medium was replaced every 2 days with a fresh medium.
M3-1 medium: William's Medium E supplemented with L-glutamine, HCM SingleQuots (containing neither GA1000 nor human EGF) (Lonza, CC-4182), 1% PS (Nacalai), 10 ng/ml recombinant human HGF (PeproTech 100-39), 1 μM dexamethasone (Sigma-Aldrich, D8893), 1.4 μM BIO, and 1 M calcitriol (Sigma-Aldrich, D1530). […]
For a reverse transcription reaction, 2.5 μg of RNA was reverse-transcribed using PrimeScript™ RT Master Mix (Takara, Japan). For real-time PCR analysis, mRNA expression was quantified with SyberGreen on a StepOne Plus (Applied Biosystems, Foster City, Calif.). […] A target mRNA level was expressed as an arbitrary unit, and was determined using the ΔΔ CT method.

For `Cc1ncc2n1-c1ccc(Cl)cc1C(c1ccccc1F)=NC2` [midazolam], the “clearance rate of formation of 1′-OH midazolam” value on CYP3A4 is reported as 0.773 μL/min/mg cellular protein.

Take `C[C@H]1O[C@@H](O[C@H]2[C@@H](O)C[C@H](O[C@H]3[C@@H](O)C[C@H](O[C@H]4CC[C@@]5(C)[C@H](CC[C@@H]6[C@@H]5C[C@@H](O)[C@]5(C)[C@@H](C7=CC(=O)OC7)CC[C@]65O)C4)O[C@@H]3C)O[C@@H]2C)C[C@H](O)[C@@H]1O` [digoxin]: the “directional B-to-A transport compared with A-to-B transport” value at P-gp is “at a level higher than apical-to-basal transport”.

For `OC[C@@H](O)[C@@H](O)[C@H](O)[C@H](O)CO` [mannitol], the “directional transport across a cell monolayer” value in data set [1] is reported as “directional transport of neither propranolol nor mannitol across a cell monolayer was observed”. Further, in the data set with Caco-2 cells [2] (Cogburn et al. 1991), the “transport clearance across a Caco-2 cell monolayer (paracellular)” value is given as 3 %/cm^2/hr.

Take `CC(C)NCC(O)COc1cccc2ccccc12` (centres unmarked) [propranolol]: the “transcellular transport in the Caco-2 cells, converted” value with Caco-2 cells [3] was “approximately 99.4 μL/120 min/well”. For the same compound, in data set [1] (human, 120 min, 0.1 μCi/3 mL, pH 7.4), the “transcellular transport (present result)” value was 48 μL/120 min/well. The “transcellular transport in the Caco-2 cells” value with Caco-2 cells [2] (Artursson 1990) was 4.19e-05 cm/s.

On to `C=C1/C(=C\C=C2/CCC[C@]3(C)[C@@H]([C@H](C)CCCC(C)(C)O)CC[C@@H]23)C[C@@H](O)C[C@@H]1O` [calcitriol], for which the “CYP3A4 expression when calcitriol is removed from M3-2 medium” value with CYP3A4 expression was “minimally expressed CYP3A4”.
